Test [1] has as its system mouse. The test is described as follows: Analgesic activity, writhing test (mouse). It is filed as in vivo. How it is done:
(§1) The end product of Example 1, i.e. 2-[N-(2-fluoro-6-bromo-phenyl)-N-(thienyl-2-methyl)-amino]-2-imidazoline (A), and [N-2,6-dibromo-phenyl)-N-(thienyl-2-methyl)-amino]-2-imidazoline (B), disclosed in column 2, lines 47-48, of U.S. Pat. No. 3,937,717, were tested for analgesic activity and locomotion-inhibiting activity by the standard test methods described in the following literature references:
Analgesic activity: Ph. Linee, J. Pharmacol. (Paris) 3,4 513-515 (1972). Writhing test.
A general note: In writhing tests, fewer writhes than in controls are read as antinociception.

Test [2] has as its system mouse. Put plainly: Locomotion-inhibiting activity (mouse). The settings on record: sc, read-out: Locomotion inhibition (mouse) ED50 s.c. The test is classed as in vivo. How it is done:
as §1
Locomotion--inhibiting activity: K. Stockhaus et al., Committee on Problems of Drug Dependence (1970) 6890-6898 National Academy of Sciences.

Where [3] appears, read: po, read-out: Writhing test (mouse) ED50 p.o.
[4] abbreviates: sc, read-out: Writhing test (mouse) ED50 s.c.

What is called ED50 is the midpoint of the dose-response relation. Turning to `Brc1cccc(Br)c1N(Cc1cccs1)C1=NCCN1` [B], the figures for the ED50 in the test with mouse [1] (setting [3]), with mouse [1] (setting [4]) and with mouse [2] were 0.6 mg/kg, 0.3 mg/kg and 0.6 mg/kg, respectively.

In the case of `Fc1cccc(Br)c1N(Cc1cccs1)C1=NCCN1` [A, 2-[N-(2-fluoro-6-bromo-phenyl)-N-(thienyl-2-methyl)-amino]-2-imidazoline], the ED50 in the test on mouse [1] (setting [3]) is 0.28 mg/kg; in the test with mouse [1] (setting [4]), 0.12 mg/kg; with mouse [2], 0.13 mg/kg.

Values taken from patent US4478844A, “Bradycardiac or analgesic 2-(N-(thienyl-2-methyl)-N-(2-fluoro-6-methyl-phenyl)-amino)-2-imidazolin e and salts thereof” (Boehringer Ingelheim KG, priority 1979, dated 1984).
